From patent publication US10975069B2, “Sigma-2 receptor ligand drug conjugates as antitumor compounds, methods of synthesis and uses thereof” (priority 2014, dated 2021)
Where two headings read alike, the source gives them in different places.

What was measured:
[1] = system: all human and murine pancreatic cancer cell lines tested; assay: Viability assay on panel of pancreatic cancer cell lines; format: cell-based
Procedure: In these experiments, viability assays after 24 hours treatment of human and murine pancreatic cancer cell lines and synovial sarcoma cell lines with SW V-49s or its parent compounds SV119 and Erastin, both singly and in combination, were performed. […] In comparison.
Cytotoxicity of the drugs was evaluated by CELLTITER-GLO®. Luminescent cell viability assay (Promega, Madison, Wis.). Pancreatic cell lines were plated at a density of 2×10^4/well in white 96 well, clear bottom plates for 24 hours prior to treatment. Drugs were dissolved in DMSO and serially diluted in culture medium to achieve the final concentration of DMSO less than 1%. Cells were then treated for 24 hours and 100 μl of the CELLTITER-GLO® reagent was added to each well. The contents of the plates were mixed using an orbital shaker and subsequently incubated for 10 minutes at room temperature. Luminescence signal was measured using a multi-mode microplate reader (BioTek instruments. Winooski, Vt.). Different drug concentrations were assayed in triplicate. To evaluate the efficacy of the drugs, IC50 of the compounds was calculated on a panel of human and mouse derived pancreatic cancer cell lines in vitro. Cells were treated for 24 hours with SW V-49s, SV119, Erastin, and an equimolar mixture of SV119 and Erastin, then CELLTITER-GLO® viability assay was performed.

[2] = system: reactive oxygen species (ROS); assay: Reactive oxygen species (ROS) assay in AsPC-1 cells; format: cell-based, human; details: 8 μM; for increase in ROS: 30 min, compared to Erastin, SV119 or combination, FIG. 6; for ROS level compared to others: one hour, FIG. 11B
Procedure: In FIG. 6, results are shown for reactive oxygen species (ROS) assays of Aspc-1 treated with 8 μM 8 μM SW V-49s, 8 μM Erastin, 8 μM SV119, or 8 μM of an equimolar mixture of Erastin and SV119, or a positive control for 30 min. […] Parent compounds SV119 and Erastin, applied to cells either singly or in combination, had no effect at the same concentration.
ROS measurement was performed using Total ROS/Superoxide Detection Kit (Enzo life sciences, Farmingdale, N.Y.) according to the manufacturer's instructions. Briefly. As PC-1 cells were seeded at a density of 2×10^4 cells/well in a black wall clear bottom 96-well plate for 24 hours. Compounds were dissolved in DMSO and diluted in culture medium to achieve a final concentration of DMSO less than 1%. AsPC-1 cells were treated with 8 μM of SV119, Erastin, and equimolar mixture of SV119 and Erastin. ROS assay was performed one hour after treatment. Cells were treated for one hour, then media was removed and 100 μL/well of ROS/Superoxide Detection Mix was added. Fluorescence signal was measured using a multi-mode microplate reader (Bio-Tek, Winooski, Vt.). The assay was performed in 6 replicates.

[3] = biological target: T1, cystine/glutamate antiporter (system Xc′) (Homo sapiens, UniProt Q9UPY5); assay: Cystine uptake assay in AsPC-1 cells; format: cell-based; details: FIG. 11A; for reduction in cystine uptake: same concentration of each compound (200 μM), DMSO control
T1 construct: endogenous in cells; host or cells: AsPC-1
T1 sequence (Q9UPY5 1-501): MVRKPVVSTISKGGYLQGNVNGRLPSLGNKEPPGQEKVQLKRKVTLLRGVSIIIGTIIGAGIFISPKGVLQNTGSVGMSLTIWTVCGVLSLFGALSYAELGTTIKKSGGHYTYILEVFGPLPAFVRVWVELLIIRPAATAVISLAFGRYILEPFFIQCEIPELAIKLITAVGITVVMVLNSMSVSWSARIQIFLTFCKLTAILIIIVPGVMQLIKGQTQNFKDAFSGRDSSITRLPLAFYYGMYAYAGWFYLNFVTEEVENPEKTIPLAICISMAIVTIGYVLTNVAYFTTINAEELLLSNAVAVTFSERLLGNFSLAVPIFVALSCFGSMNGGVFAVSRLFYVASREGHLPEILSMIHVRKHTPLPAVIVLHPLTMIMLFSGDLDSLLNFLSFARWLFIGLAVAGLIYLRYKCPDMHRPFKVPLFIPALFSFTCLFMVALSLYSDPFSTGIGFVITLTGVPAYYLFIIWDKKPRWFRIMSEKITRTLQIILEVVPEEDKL
T1 sequence (P08195 1-529 partner): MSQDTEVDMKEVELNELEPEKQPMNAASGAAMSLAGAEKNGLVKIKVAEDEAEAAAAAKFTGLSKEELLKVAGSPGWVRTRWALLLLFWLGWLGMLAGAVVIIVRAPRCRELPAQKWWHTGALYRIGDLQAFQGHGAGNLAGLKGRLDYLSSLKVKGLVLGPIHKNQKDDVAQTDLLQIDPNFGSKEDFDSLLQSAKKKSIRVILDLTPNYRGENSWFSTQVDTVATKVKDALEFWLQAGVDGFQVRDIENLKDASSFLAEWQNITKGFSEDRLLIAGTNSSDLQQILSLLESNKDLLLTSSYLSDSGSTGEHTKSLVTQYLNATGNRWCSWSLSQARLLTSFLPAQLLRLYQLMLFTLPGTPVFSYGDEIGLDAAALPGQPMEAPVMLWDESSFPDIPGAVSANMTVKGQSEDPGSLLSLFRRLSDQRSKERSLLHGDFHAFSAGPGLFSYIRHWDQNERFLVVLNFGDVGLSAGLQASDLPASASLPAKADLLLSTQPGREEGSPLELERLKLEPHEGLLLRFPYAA
Procedure: In these experiments, cystine uptake assay was performed as previously described (Dixon, S. J. et al. Cell 2012; 149: 1060-1072). Briefly, […] AsPC-1 cells/well were seeded overnight in 6 well plate. The next day, cells were washed twice in pre-warmed Na^+-free uptake buffer (137 mM choline chloride, 3 mM KCl, 1 mM CaCl2, 1 mM MgCl2, 5 mM D-glucose, 0.7 mM K2HPO4, and 10 mM HEPES [pH 7.4]). Subsequently, cells were incubated for 10 minutes at 37° C. in 1 ml of the uptake buffer to deplete cellular amino acids. The buffer was then replaced with 600 μl uptake buffer containing 200 μM of SW V-49s and 0.12 μCi (80-110 mCi/mmol) of L-[3,3′-^14C]-cystine (American Radiolabeled Chemicals. St Louis. Mo.) and incubated for 3 minutes at 37° C. After that, cells were washed three times with ice-cold uptake buffer and lysed in 500 μl of 0.1 M NaOH. To this lysate, 1 ml of scintillation fluid was added, and radioactive counts per minute were obtained by using a scintillation counter.
To evaluate this mechanism. AsPC-1 cells were plated in 6 well plate for 24 hours. Cells were then treated with the same concentration of SV119, Erastin, combination of SV119 and Erastin. SW V-49s, and DMSO as a control. After that, a cystine uptake assay was performed. […] Erastin, and combination of SV 119 and Erastin, respectively (p=0.004, FIG. 11A).

Row | Compound | IC50 ([1]; Pancreatic cancer cell, 24 h, 24 hours treatment, against all human and murine pancreatic cancer cell lines tested) [µM] | IC50 ([1]; Pancreatic cancer cell, 24 h, panel of human and mouse derived pancreatic cancer cell lines) [µM] | increase in ROS [2] | ROS level compared to others [2] | reduction in cystine uptake [3] [%] | IC50 ([1]; 24 hours treatment, against all human and murine pancreatic cancer cell lines tested, read-out: IC50) [µM] | reduction of IC50 as compared to equimolar mixture of SV119 and Erastin ([1]; 24 hours, pancreatic cancer cell line panel) | fold less cysteine uptake [3] [fold]
1 | CCOc1ccccc1-n1c(C(C)N2CCN(C(=O)COc3ccc(Cl)cc3)CC2)nc2ccccc2c1=O (centres unmarked) [Erastin] | > 100 | > 150 | no effect | no increase | 41 | – | – | –
2 | COc1ccc(C)cc1NC(=O)OC1C[C@H]2CCC[C@@H](C1)N2CCCCCCN (some centres unmarked) [SV119, reference compound] | – | – | no effect | no increase | 25 | > 54 | – | –
3 | CCOc1ccccc1-n1c(CN2CCN(C(=O)COc3ccc(CNCCCCCCN4C5CCCC4CC(OC(=O)Nc4cc(C)ccc4OC)C5)cc3)CC2)nc2ccccc2c1=O.O=C(O)C(=O)O (centres unmarked) [SW V-49s] | – | – | 50% | 1.5 fold | 85 | – | 17-20 fold | 3.7
